Results as given in US9133228B2, “Guanidinyl-substituted polyamides useful for treating human papilloma virus” (Nanovir, LLC, priority 2011, dated 2015).

Columns and labels:
Type in all cases: cell-based, Human papilloma virus
HPV18 = assay: Inhibition of viral replication in cells that maintain HPV18 DNA, viral DNA quantified by real-time PCR; conditions: cells maintaining HPV18 cultured 72 hours with polyamide; vs DMSO control; highest dose tested 10 μM
From the text: (§1) Table 1a lists a number of exemplary polyamides synthesized in accordance with the present invention. The HPLC/MW values given in Table 1b were obtained using low resolution high pressure liquid chromatography/mass spectrometry (LR HPLC/MS), which provides moderate precision masses of single isotopomers rather than average molecular weights or exact masses. Table 2 presents a summary of measured IC50 values of certain of these polyamides against HPV16, HPV18 and HPV31. The IC50 is the concentration of compound required for 50% inhibition of viral replication in vitro. The polyamides were tested in cells that maintain HPV16, HPV18 or HPV31 DNA. Cells maintaining the selected HPV were cultured for 72 hours in the presence of the polyamide. Viral DNA was then quantified using real-time PCR and compared to vehicle (DMSO)-treated control cultures. […] Table 3 presents a summary of measured IC50 and IC90 values of certain of these polyamides against HPV16, HPV18 and HPV31.

HPV16 = assay: Inhibition of viral replication in cells that maintain HPV16 DNA, viral DNA quantified by real-time PCR; conditions: cells maintaining HPV16 cultured 72 hours with polyamide; vs DMSO control; highest dose tested 10 μM
From the text: as §1

HPV31 = assay: Inhibition of viral replication in cells that maintain HPV31 DNA, viral DNA quantified by real-time PCR; conditions: cells maintaining HPV31 cultured 72 hours with polyamide; vs DMSO control; highest dose tested 10 μM
From the text: as §1

Structure (SMILES)	IC50 (HPV18)	IC50 (HPV16)	IC50 (HPV31)
CN(CCCN)CCCNC(=O)c1cc(NC(=O)c2cc(NC(=O)CCNC(=O)c3cc(NC(=O)c4cc(NC(=O)c5cc(NC(=O)CCNC(=O)c6cc(NC(=O)c7cc(NC(=O)CCNC(=O)c8cc(NC(=O)[C@H](N)CCNC(=O)c9nc(NC(=O)c%10cc(NC(=O)CCNC(=O)c%11cc(NC(=O)c%12cc(NC(=O)CCNC(=O)c%13cc(NC(=O)c%14cc(N=C(N(C)C)N(C)C)cn%14C)cn%13C)cn%12C)cn%11C)cn%10C)cn9C)cn8C)cn7C)cn6C)cn5C)cn4C)cn3C)cn2C)cn1C [NV1071, TMG-PyPyβPyPyβPyIm-γNH2-PyβPyPyβPyPyPyβPyPy-Ta•5TFA]	93 nM	255 nM	95 nM
CN(CCCN)CCCNC(=O)CCNC(=O)c1cc(NC(=O)CCNC(=O)c2cc(NC(=O)c3cc(NC(=O)c4cc(NC(=O)CCNC(=O)c5cc(NC(=O)c6cc(NC(=O)CCNC(=O)c7cc(NC(=O)[C@@H](CCNC(=O)c8nc(NC(=O)c9cc(NC(=O)CCNC(=O)c%10cc(NC(=O)c%11cc(NC(=O)CCNC(=O)c%12cc(NC(=O)c%13cc(NC(=O)c%14cc(N=C(N(C)C)N(C)C)cn%14C)cn%13C)cn%12C)cn%11C)cn%10C)cn9C)cn8C)NC(=O)NCCCN(C)CCCN)cn7C)cn6C)cn5C)cn4C)cn3C)cn2C)cn1C [NV1072, TMG-PyPyPyβPyPyβPyIm-γNHR′-PyβPyPyβPyPyPyβPyβ-Ta•6TFA]	216 nM	109 nM	96 nM
CN(CCCN)CCCNC(=O)CCNC(=O)c1cc(NC(=O)CCNC(=O)c2cc(NC(=O)c3cc(NC(=O)c4cc(NC(=O)CCNC(=O)c5cc(NC(=O)c6cc(NC(=O)CCNC(=O)c7cc(NC(=O)[C@H](N)CCNC(=O)c8nc(NC(=O)c9cc(NC(=O)CCNC(=O)c%10cc(NC(=O)c%11cc(NC(=O)CCNC(=O)c%12cc(NC(=O)c%13cc(NC(=O)c%14cc(N=C(N(C)C)N(C)C)cn%14C)cn%13C)cn%12C)cn%11C)cn%10C)cn9C)cn8C)cn7C)cn6C)cn5C)cn4C)cn3C)cn2C)cn1C [NV1073, TMG-PyPyPyβPyPyβPyIm-γNH2-PyβPyPyβPyPyPyβPyβ-Ta•5TFA]	405 nM	267 nM	220 nM
CN(C)CCCNC(=O)CCNC(=O)c1cc(NC(=O)CCNC(=O)c2cc(NC(=O)c3cc(NC(=O)c4cc(NC(=O)CCNC(=O)c5cc(NC(=O)c6cc(NC(=O)CCNC(=O)c7cc(NC(=O)[C@H](N)CCNC(=O)c8nc(NC(=O)c9cc(NC(=O)CCNC(=O)c%10cc(NC(=O)c%11cc(NC(=O)CCNC(=O)c%12cc(NC(=O)c%13cc(NC(=O)c%14cc(N=C(N(C)C)N(C)C)cn%14C)cn%13C)cn%12C)cn%11C)cn%10C)cn9C)cn8C)cn7C)cn6C)cn5C)cn4C)cn3C)cn2C)cn1C [NV1075, TMG-PyPyPyβPyPyβPyIm-γNH2-PyβPyPyβPyPyPyβPyβ-Dp•4TFA]	49 nM	124 nM	56 nM

The remaining lines, values ahead:

IC50 (HPV18)	IC50 (HPV16)	IC50 (HPV31)	Structure (SMILES)
41 nM	178 nM	52 nM	CN(CCCN)CCCNC(=O)CCNC(=O)c1cc(NC(=O)CCNC(=O)c2cc(NC(=O)c3cc(NC(=O)c4cc(NC(=O)CCNC(=O)c5cc(NC(=O)c6cc(NC(=O)c7cc(NC(=O)[C@@H](CCNC(=O)c8cc(NC(=O)CCNC(=O)c9cc(NC(=O)c%10cc(NC(=O)CCNC(=O)c%11cc(NC(=O)c%12cc(NC(=O)c%13cc(N=C(N(C)C)N(C)C)cn%13C)cn%12C)cn%11C)cn%10C)cn9C)cn8C)NC(=O)NCCCN(C)CCCN)cn7C)cn6C)cn5C)cn4C)cn3C)cn2C)cn1C [NV1074, TMG-PyPyPyβPyPyβPy-γNHR′-PyPyPyβPyPyPyβPyβ-Ta•5TFA]
48 nM	67 nM	104 nM	CN(CCCN)CCCNC(=O)CCNC(=O)c1cc(NC(=O)CCNC(=O)c2cc(NC(=O)c3cc(NC(=O)c4cc(NC(=O)CCNC(=O)c5cc(NC(=O)c6cc(NC(=O)c7cc(NC(=O)[C@H](N)CCNC(=O)c8cc(NC(=O)CCNC(=O)c9cc(NC(=O)c%10cc(NC(=O)CCNC(=O)c%11cc(NC(=O)c%12cc(NC(=O)c%13cc(N=C(N(C)C)N(C)C)cn%13C)cn%12C)cn%11C)cn%10C)cn9C)cn8C)cn7C)cn6C)cn5C)cn4C)cn3C)cn2C)cn1C [NV1076, TMG-PyPyPyβPyPyβPy-γNH2-PyPyPyβPyPyPyβPyβ-Ta]
